# Laboratory results reported in US20040029254A1, “Method of screening anti-bacterial agents for effectiveness in treating persistant intracellular infections” (University of Washington, priority 2002, published 2004).
# Legend:
# Format in all cases: cell-based
# [1] = test system: C. suis R-19 (porcine strain); details: McCoy cells; for MCC (microtiter): one freeze-thaw passage in microtiter plates; for MCC1 (shell vial): one passage in shell vials; for MCC3 (shell vial): three passages in shell vials; for MIC (microtiter): tetracycline-resistant strain
# [2] = test system: C. trachomatis L2 (LGV serovar); test: Anti-bacterial susceptibilities of reference strains
# [3] = test system: C. trachomatis B,D,E,F,G,H,I,Ia,J,K (human genital serovars); test: as above
# [4] = test system: clinical isolates of C. trachomatis; test: microbe, parasite or virus in culture
# [5] = test system: C. trachomatis MoPn (mouse pneumonitis strain); test: Anti-bacterial susceptibilities of reference strains
SMILES,MCC (microtiter) [1] [µg/mL],MCC1 (shell vial) [1] [µg/mL],MCC3 (shell vial) [1] [µg/mL],MCC1 (shell vial) [2] [µg/mL],MCC3 (shell vial) [2] [µg/mL],MCC (microtiter) [2] [µg/mL],MCC1 (shell vial) [3] [µg/mL],MCC3 (shell vial) [3] [µg/mL],MCC (microtiter) [3] [µg/mL],MCC1 [4] [µg/mL],MCC3 [4] [µg/mL],MCC1 (shell vial) [5] [µg/mL],MCC3 (shell vial) [5] [µg/mL],MCC (microtiter) [5] [µg/mL],MIC (microtiter) [1] [µg/mL]
"CC[C@H]1OC(=O)[C@H](C)[C@@H](O[C@H]2C[C@@](C)(OC)[C@@H](O)[C@H](C)O2)[C@H](C)[C@@H](O[C@@H]2O[C@H](C)C[C@H](N(C)C)[C@H]2O)[C@](C)(O)C[C@@H](C)CN(C)[C@H](C)[C@@H](O)[C@]1(C)O [Azithromycin, azithromycin]",0.25,>8,>128,>8,64,0.25,>8,64,0.25,4 to 8,32 to 64,>8,128,0.5,
"C[C@H]1c2cccc(O)c2C(=O)C2=C(O)[C@]3(O)C(=O)C(C(N)=O)=C(O)[C@@H](N(C)C)[C@@H]3[C@@H](O)[C@@H]21 [Doxycycline, doxycycline]",2.0,>8,>128,>8,32,0.125,>8,16 to 32,0.125,4 to 8,32 to 64,>8,64,0.5,1.0
CCCN1CCN(c2cc(O)c3nc4c5c6c7c(C)c(O)c5c(=O)c(c-4oc3c2)NC(=O)/C(C)=C\C=C\[C@H](C)[C@H](O)[C@@H](C)[C@@H](O)[C@@H](C)[C@H](OC(C)=O)[C@H](C)[C@@H](OC)/C=C/O[C@@](C)(O7)C6=O)CC1 [KRM-1657],,,,,,,,,,0.0005 to 0.001,0.001 to 0.002,,,,
"CC1COc2c(N3CCN(C)CC3)c(F)cc3c(=O)c(C(=O)O)cn1c23 (stereo not drawn) [Ofloxacin, ofloxacin]",1.0,>8,>128,>8,>128,1.0,>8,>128,1.0,8 to 16,>128,>8,>128,1.0,0.5
"CO[C@H]1/C=C/O[C@@]2(C)Oc3c(C)c(O)c4c(=O)c(c5oc6cc(N7CCN(CC(C)C)CC7)cc(O)c6nc-5c4c3C2=O)NC(=O)/C(C)=C\C=C\[C@H](C)[C@H](O)[C@@H](C)[C@@H](O)[C@@H](C)[C@H](OC(C)=O)[C@@H]1C [Rifalazil, rifalazil]",,,,,,,,,,0.001 to 0.002,0.004 to 0.008,,,,
